Measurements: patent US20080207502A1, “Anti-Angiogenic Peptides and Methods of Use Thereof” (SOPHERION THERAPEUTICS, INC., priority 2004, published 2008)

Assays:
[1] = test system: Bovine Retinal Endothelial Cells (BRE); assay: VEGF-mediated survival/proliferation of BRE cells (WST1); format: cell-based
Protocol: (§1) The anti-angiogenic activities of the peptides were tested by measuring the level of inhibition of VEGF and bFGF mediated survival/proliferation of Bovine Retinal Endothelial Cells (BRE), Human Dermal Microvasculature Endothelial Cells, and Human Umbilical Vein Endothelial Cells, all of which are standard cell lines used to test anti-angiogenic compounds.
Bovine retinal endothelial (BRE) cells were maintained in Cambrex EG2 media. For non-adherent cell assays, on day one cells were starved for either 6 hours or overnight, then trypsinized and plated in 96-well plates in 100 μl of Optimem plus 1% fetal bovine serum (FBS). One hundred μl of Optimem plus 1% FBS was added to the wells containing, where appropriate, VEGF to a final concentration of 25 ng/ml, and the various peptides to final concentrations as described. For adherent cells, cells were plated in 96-well plates in complete media, allowed to adhere overnight, washed in starvation media (Optimem plus 1% FBS) and then starved during the day. At the end of the day, 100 μl of Optimem plus 1% FBS was added to the wells containing, where appropriate, VEGF to a final concentration of 25 ng/ml and the various peptides to final concentrations as described.
(§2) In all cases, after 72 hours incubation, the amount of live cells in each well was measured with the WST1 assay (Roche).

[2] = Biological activity of D-amino acid versions of ST100,038 (assay not specified); conditions: ST100,045 tested against ST100,059 and a control
Protocol: D-amino acid peptides can be made by generating a D-amino acid peptide with the same sequence as a L-amino acid peptide or by preparing a retro inverso form of a peptide. ST100,045 (SEQ ID NO.: 31) has the same sequence as ST100,038 (SEQ ID NO.: 29) was tested against ST100,059 (SEQ ID NO.: 30) which is the retro inverso version of ST100,038 and a control.

[3] = test system: B16 melanoma tumor; assay: Subcutaneous B16 melanoma tumor model in vivo; parameters: species or system mouse; conditions: vs untreated controls
Protocol: Because of the importance of the angiogenic process for tumorigenesis, miniproteins as described herein, were hypothesized to show good anti-tumor activity. The peptides of the invention were tested in an in vivo model of anti-tumor activity. This model compares the growth of sub cutaneous B16 melanoma tumor in vivo either untreated or treated with various amount of miniproteins described in this application. This model is widely accepted in the art as a model to test the anti-tumor activity of compounds that inhibit tumor growth because they have anti-angiogenic activity.
Male C57BL/6 mice were obtained with a mean body weight of 20±2 g. Mouse B16-F1 melanoma cells were implanted subcutaneously (5×10^5 cell per animal). Peptides (formulated in water) were administered ip daily at the amount indicated starting the day after cells injection. In general, tumors became palpable around 9 days after injection of cells. Tumor were then measured every 2 days.

[4] = test system: binding of radiolabeled VEGF to endothelial cells; assay: Inhibition of binding of radiolabeled VEGF to endothelial cells; conditions: concentration of 30 μM; for inhibition of VEGF binding: FIG. 7; for VEGF binding inhibition: legend of FIG. 7
Description: The activity of the peptides SEQ ID NO.: 1 and SEQ ID NO.: 2 in blocking the binding of radiolabeled VEGF to endothelial cells is shown in FIG. 7.

[5] = Heparin binding activity by liquid chromatography on Hi Trap Heparin HP column (NaCl elution); conditions: step gradient 500-1000 mM NaCl in 10 mM NaH2PO4 pH 7
Description: Liquid chromatography was used to determine the relative levels of heparin binding activity of the individual heparin binding domains and of the anti-angiogenic miniproteins that contains them. In this assay, the strength of the heparin binding activity is proportional to the amount of NaCl that is required to elute the peptide bound to the heparin column. Peptides with low binding activity are eluted with lower NaCl concentration, whereas higher concentrations of NaCl are required for peptides with higher binding activity.
Hi Trap Heparin HP column (1 ml, Amersham Biosciences) was equilibrated with 10 column volumes (CV) of equilibration (EQ) buffer=10 mM NaH2PO4pH 7. All buffers were loaded onto columns via syringes. 500 μl fractions are collected (flow rate=1 ml/minute). 500 μg of peptide (1 mg/ml, resuspended in EQ buffer) was added to each column and the flow through was collected for analysis. The columns were then washed with 3 CV of EQ buffer. Peptides are then eluted with a step gradient of 500, 625, 750, 875 mM NaCl in EQ buffer, 2 CV per each step. A final step of 3 CV of 1000 mM NaCl in EQ buffer was collected in 500 μl fractions. The A210 nm was measured using EQ and elution buffers as blanks.

[6] = test system: mouse leukemia L1210 cells; assay: Tumor cell proliferation (WST-1), L1210; format: cell-based; conditions: FIG. 11
Protocol: Peptides to be tested were prepared at a stock concentration of 10 mM in sterile phosphate buffered saline. Cancer cell lines obtained from the American Type Culture Collection (MG-63, HT1080, A498, BxPC3, 786-0, PC-3, B16F1, B16F10, P388D1, Jurkat, MOLT4, THP-1, U-937, L1210, RPMI 8226, NCI H929, U266B1, K562) were cultured under appropriate conditions as described in the literature. Cell culture media and reagents were obtained from ATCC (Manassas, Va.), Invitrogen (Carlsbad, Calif.) or Mediatech (Herndon, Va.). Exponentially growing cultures were used for cell proliferation assays. Adherent cells were plated at a concentration of 100000 cells per milliter in growth media overnight (18-24 h) and treated the next day in a low serum media (growth media with 1% FBS for MG-63, HT1080, A498, BxPC3, PC-3, B16F1, B16F10. 786-0 cells were treated in media with 5% FBS). Suspension cell lines (P388D1, Jurkat, MOLT4, THP-1, U-937, L1210, RPMI 8226, NCI H929, U266B1, and K562) were diluted to a concentration of 100,000 cells per ml and treated on the same day with peptides. Peptides were diluted in treatment media and cells were treated for 48 or 72 hours depending on the cell line. Each dose was tested in triplicate for each experiment, and experiments were repeated for a minimum of three discrete times. After incubation, the relative number of cells was determined using WST-1 (Roche Applied Science). A 9.5 μl aliquot of WST-1 was added to each well. The plate was immediately read at 440 nm using a Bio-Tek PowerWave XS microplate reader, incubated for 2-3 hours at 37° C. and then read again. Cell proliferation was determined as the percent of the control cell proliferation. The absorbance of each well at time 0 was subtracted from the value of the final reading. Afterwards the blank values were averaged and subtracted from each test and control value. Finally, each test absorbance was divided by the average of the control absorbances and multiplied by 100 to obtain the percent of control. […]

[7] = test system: L1210 murine leukemia; assay: L1210 murine leukemia intravenous model in vivo; parameters: species or system mouse; conditions: dosed IP, DBA/2 mice, FIG. 15a
Protocol: Antitumor activity of test peptides, administered intraperitoneally (IP), were evaluated against L1210 murine leukemia cells implanted intravenously (IV) in DBA/2 mice.
Studies generally consisted of randomly-assigned groups of 8 mice per group, which were inoculated IV with 1×10^5 cells per mouse from an in vivo leukemia cell line. In addition to groups tested with test peptides, studies usually included a vehicle-treated control group and a positive control group treated with an agent known to be active in the L1210 leukemia model. Starting one day after tumor inoculation (inoculation day defined as Day 0), mice were treated IP with either vehicle or test peptides in various schedules. Generally this consisted of treatment every other day for approximately 1 week (e.g., Days 1, 3, 5 and 7). A positive agent (e.g., cyclophosphamide) was usually given as a single IP injection on Day 1. All dosing solutions were prepared on each day of treatment. Survival was monitored daily and body weights were measured twice weekly. Anti-tumor activity was assessed by the increase in lifespan of the treated groups in comparison to the vehicle-treated control group. Studies with the L1210 leukemia model were limited to 30 days.

[8] = test system: Human Umbilical Vein Endothelial Cells; assay: bFGF-mediated survival/proliferation of human umbilical vein endothelial cells (WST1); format: cell-based; conditions: for potency in blocking bFGF stimulation: compared with ST100,068, FIG. 6; for inhibition of bFGF mediated survival: comparison of several peptides, FIG. 10
Protocol: as §1
Human umbilical cord endothelial (HUVEC) cells were maintained in Cambrex EGM-2MV media. On day one, cells were starved overnight in 1% FBS in M200 media (Cascade Biologicals). The morning after, the media were replaced with serum-free media (control) or media containing 25 ng/ml of human VEGF165 and the various peptides to final concentrations as described.
as §2

ATSLPPHSSQSP (listed as Homo sapiens) [ST100,038]
Concentrations that completely abolished the VEGF-induced increase in WST-1 value ([1]; VEGF 25 ng/ml, 72 hours, FIG. 4): above 40 μM

ATSLPPHSSQSP (listed as Homo sapiens) [ST100,045]
biologically active [2]: Only the retro inverso form of ST100,038, (ST100,059; SEQ ID NO.: 30) was found to be biologically active

ATSLPPHSSQSPGGGPPAARGRRAARGRR (listed as Homo sapiens) [ST100,062]
inhibition of tumor growth ([3]; 20 mg/kg daily IP, FIG. 12): clearly inhibit tumor growth

PYAGRGDSVVYGLGGGPGAARGRRAARGRR [ST100,033]
inhibition of VEGF binding [4]: ~100%
VEGF binding inhibition [4]: completely abolished VEGF binding

RAAKKRKRAAKKRARAAKKRLGYVVSDGRGDYP (RAAKKRARAAKKRARAAKKRLGYVVSDGRGDYP; listed as Homo sapiens) [ST100,079]
[NaCl] for elution [5]: 1000 mM

RKKAARARKKAARARKKAARRLGYVVSDGRGDYP (listed as Homo sapiens) [ST100,081]
[NaCl] for elution [5]: 1000 mM

RKRAALRARKRAARARKRAARR (RKRAARARKRAARARKRAARR; listed as Homo sapiens) [ST100,083]
[NaCl] for elution [5]: 1100 mM

RLGYVVSDGRGDYP (listed as Homo sapiens) [ST100,077]
blocked cell proliferation or induced cell death [6]: Neither

RLGYVVSDGRGDYPKKKRRGRAARRGRAA [ST100,065]
[NaCl] for elution [5]: 750 mM
mice (cured mice) survived longer than 30 days [7]: Sixty to eighty percent
survival [7]: statistically significant increases in survival

RRGRAAKKKRRGRAAKKK (listed as Homo sapiens) [ST100,082]
[NaCl] for elution [5]: 1000 mM

RRGRAAKKKRRGRAAKKKPSQSSHPPLSTA (listed as Homo sapiens) [ST100,072]
[NaCl] for elution [5]: 1000 mM
potency in blocking bFGF stimulation [8]: more potent in blocking bFGF stimulation

RRGRAAKKKRRGRAAKKKRLGYVVSDGRGDYP [ST100,074]
[NaCl] for elution [5]: 1000 mM
inhibition of bFGF mediated survival [8]: the most active in inhibiting bFGF stimulation
mice (cured mice) survived longer than 30 days [7]: Sixty to eighty percent
survival [7]: statistically significant increases in survival

RRGRAARRGRAAKKK (listed as Homo sapiens) [ST100,078]
inhibition of bFGF mediated survival [8]: not as potent
blocked cell proliferation or induced cell death [6]: Neither

RRGRAARRGRAAKKKPSQSSHPPLSTA (listed as Homo sapiens) [ST100,068]
potency in blocking VEGF stimulation ([1]; compared with ST100,059, FIG. 5): more potent in blocking VEGF stimulation
inhibition of VEGF stimulation ([1]; increasing doses, FIG. 5): inhibited with increasing doses
inhibition of tumor growth ([3]; 20 mg/kg and 40 mg/kg daily IP, FIG. 13): able to inhibit tumor growth

RRGRAARRGRAARRGRAAKKKPSQSSHPPLSTA (listed as Homo sapiens) [ST100,073]
[NaCl] for elution [5]: 1000 mM
potency in blocking bFGF stimulation [8]: more potent in blocking bFGF stimulation
inhibition of bFGF mediated survival [8]: the most active in inhibiting bFGF stimulation
inhibition of tumor growth ([3]; 20 mg/kg daily IP, FIG. 14): able to inhibit tumor growth

YDGRGDSVVYGLKKKAARGRRAARGRR [ST100,032]
inhibition of VEGF binding [4]: ~100%
VEGF binding inhibition [4]: completely abolished VEGF binding
